Experiment: Solubility in aqueous media / aqueous buffer solutions
Assay type: physicochemical

solubility in the aqueous media at various pH (free base, aqueous media at various pH) | Compound | solubility in the aqueous buffer solutions (hydrochloride salt, aqueous buffer solutions)
low solubility | CN1CCc2cccc3c2[C@@H]1Cc1ccc(O)c(O)c1-3 [(6aS)-6-methyl-5,6,6a,7-tetrahydro-4H-dibenzo[de,g]quinoline-10,11-diol] | –
– | CN1CCc2cccc3c2[C@@H]1Cc1ccc(O)c(O)c1-3.Cl [(6aS)-6-methyl-5,6,6a,7-tetrahydro-4H-dibenzo[de,g]quinoline-10,11-diol hydrochloride] | low solubility

Reference: patent publication US20220313682A1, “Pharmaceutical Compositions of (6aS)-6-methyl-5,6,6a,7-tetrahydro-4H-dibenzo[de,g]quinoline-10,11-diol” (Aclipse One Inc., priority 2019, published 2022)
